Experiments:
NHDF cells = experiment: Cytotoxicity assay (MTS, 7 days); type: cell-based, Human; details: MTS, ND = 100% viability up to 10 µM, read-out: Cytotoxicity against NHDF (7 Days) CC50
Protocol: For that, 96-well tissue plates containing NHDF cells were treated with different concentrations of compounds up to 10 µM for seven days. Control cells were incubated with 0.5% DMSO. At the end of the treatment, cell viability was then analyzed through the colorimetric method of MTS (Promega, Madison, WI, USA). […] Data were analyzed using GraphPad Prim 8.0 software. IC50 and CC50 calculations were performed by fitting the values of proliferation/viability in percentage to a non-linear curve followed by dose–response inhibition analysis through log(inhibitor) vs. normalized response.

[1] = tested on: Toxoplasma gondii tachyzoites of RH strain; experiment: Forty-eight-hour antiproliferative assay; type: cell-based; details: 1 µM, 48 h
Protocol: NDHF cell monolayers were plated in a 24-well tissue plate containing coverslips, and after confluency was reached, cells were infected with a ratio of 5:1 parasite/host cells with freshly egressed RH strain tachyzoites for two hours. Then, cells were washed twice with phosphate-buffered saline, pH 7.4 (PBS), to remove non-invaded parasites and incubated with a complete medium for two hours more. After this time, infected cells were treated for 48 h with different concentrations of selected compounds, based on the IC50 obtained through plaque assay. At the end of the experiment, the cells were washed with PBS, stained with Bouin for 10 min, washed with 70% alcohol, and stained with solutions 2 and 3 of the Fast Panoptic kit for 60 and 10 s, respectively. Two hundred infected cells were quantified per slide using the 100× objective of a Leica DM500 optical microscope, stratifying the number of infected and non-infected cells and the amount of tachyzoite in each infected cell. The proliferation index is the ratio of the product of the total amount of tachyzoites and the percentage of infected cells by the total number of cells.

Madurella mycetomatis = tested on: Madurella mycetomatis; set-up: method as in PMID 35120131; details: read-out: IC50 against Madurella mycetomatis; cited from earlier work
[2] = tested on: Toxoplasma gondii tachyzoites of RH strain; experiment: Plaque assay (7 days) in NHDF monolayers infected with T. gondii; type: cell-based; details: 7 days of treatment, two independent experiments
Protocol: After NHDF reached confluency, each well was replaced with fresh medium containing one compound at a concentration of 1 µM, and then infected with 1000 newly egressed tachyzoites from RH strain [29]. Screening at 1 μM is recommended by MMV. As a control, infected cells were incubated with complete medium and 0.01% DMSO [29]. The plates were then kept in an incubator at 37 °C in a humid atmosphere with 5% CO2 for seven days. After this time, cultures were fixed with 70% ethanol and stained with crystal violet to observe the plates.
For that, 12-well plates containing a monolayer of NHDF were infected with 600 tachyzoites of the RH strain of T. gondii and treated with different concentrations for seven days. IC50s of compounds were calculated using GraphPad Prism 8.0 software.
Data were analyzed using GraphPad Prim 8.0 software. IC50 and CC50 calculations were performed by fitting the values of proliferation/viability in percentage to a non-linear curve followed by dose–response inhibition analysis through log(inhibitor) vs. normalized response.

T. gondii tachyzoites = experiment: Ultrastructural analysis through transmission electron microscopy; type: cell-based, Toxoplasma gondii; details: 1 µM, 48 h
Protocol: T-25 cm^2 flasks for cell culture with confluent monolayers of NHDF were infected with freshly egressed tachyzoite in a ratio of 10:1 parasite per cell for 2 h of interaction. The flasks were washed and fresh RPMI was added for another two hours. After this, the compounds were added and infected cells were treated for 48 h. The sample fixation and processing for microscopy were performed as previously described.

Clc1cc(Cl)c2c(c1)CCc1ccccc1C2n1ccnc1 (centres unmarked) [Eberconazole]
CC50 (NHDF cells): > 10 µM
Inhibition of parasite proliferation [1]: more than 60%
IC50 (Madurella mycetomatis): 0.72 µM
IC50 [2]: 724 ± 12.6 nM
Ultrastructural alterations on tachyzoites (TEM) (T. gondii tachyzoites): induced mitochondrial swelling (white arrowhead) and extensive vacuolization

Reference: publication PMC10747034 (Tropical Medicine and Infectious Disease, 2023)
